Source: patent publication US12115178B2, “Acylated active agents and methods of their use for the treatment of autoimmune disorders” (Flagship Pioneering Innovations V, Inc., priority 2018, dated 2024)

Experiments:
Assay type in all cases: in vitro ADME
[1] = Assay 1. Stability in Simulated Gastric Fluid (SGF); details: SGF pH 1.6 with pepsin, 1 μM, 37° C.
Outline: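 Compound at 1 μM final (from 1 mM DMSO stock) incubated at 37° C in SGF: NaCl medium at pH 1.6 with FaSSIF powder and 0.1 mg/mL pepsin, prepared fresh. Aliquots taken at T0 and regular intervals, quenched with equal volume acetonitrile; LC/MS gives degradation rate.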

[2] = Assay 2. Stability in Simulated Intestinal Fluid (SIF); details: SIF pH 6.7 with pancreatin, 1 μM, 37° C.
Outline: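 Compounds at 1 µM (from 1 mM DMSO stock) were incubated at 37 °C with agitation in simulated intestinal fluid: FaSSIF in pH 6.7 phosphate buffer with pancreatin. Aliquots taken from T0 onward were quenched with acetonitrile and analyzed by LC/MS for degradation rate.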

[3] = Assay 3. In vitro Colonic Material Stability Assay; details: colonic material slurry, anaerobic, 1 or 10 μM

Row | SMILES | Assay 1 (SGF) (% Remaining @ 1 hour) [1] | Assay 2 (SIF) (% @ Remaining 4 hours) [2] | Assay 3 (% Remaining at 24 h) [3]
1 | CCC(=O)O[C@@H]1[C@@H](OC(=O)CC)[C@H](OC)OC[C@H]1OC(=O)CC [Compound 73, (2R,3R,4S,5R)-2-methoxy-4,5-bis(propanoyloxy)oxan-3-yl propanoate] | C (>75% of the tested compound remaining) | A (<25% of the tested compound remaining) | A (<25% of the tested compound remaining)
2 | CCC(=O)O[C@@H]1[C@@H](OC(=O)CC)[C@H](OC(=O)CCc2c[nH]c3ccccc23)OC[C@@H]1OC(=O)CC [Compound 74, (2S,3R,4S,5S)-3,4,5-tris(propanoyloxy)oxan-2-yl 3-(1H-indol-3-yl)propanoate] | C (>75% of the tested compound remaining) | A (<25% of the tested compound remaining) | A (<25% of the tested compound remaining)
3 | CCC(=O)O[C@@H]1[C@@H](OC(=O)CC)[C@H](OC(=O)Cc2c[nH]c3ccccc23)OC[C@H]1OC(=O)CC [Compound 76, (2S,3R,4S,5R)-2-{[2-(1H-indol-3-yl)acetyl]oxy}-4,5-bis(propanoyloxy)oxan-3-yl propanoate] | C (>75% of the tested compound remaining) | A (<25% of the tested compound remaining) | A (<25% of the tested compound remaining)
4 | CCC(=O)O[C@H]1[C@H](OC(=O)CC)[C@@H](OC(=O)CCc2c[nH]c3ccccc23)O[C@@H](C)[C@H]1OC(=O)CC [Compound 77, (2R,3S,4R,5R,6S)-6-methyl-3,4,5-tris(propanoyloxy)oxan-2-yl 3-(1H-indol-3-yl)propanoate] | C (>75% of the tested compound remaining) | C (>75% of the tested compound remaining) | A (<25% of the tested compound remaining)
5 | CCC(=O)O[C@@H]1O[C@@H](C)[C@H](OC(=O)CC)[C@@H](OC(=O)CC)[C@H]1OC(=O)CC [Compound 78, (2S,3R,4R,5S,6S)-6-methyl-3,4,5-tris(propanoyloxy)oxan-2-yl propanoate] | B (25-75% of the tested compound remaining) | A (<25% of the tested compound remaining) | A (<25% of the tested compound remaining)
6 | O=C(CCc1c[nH]c2ccccc12)O[C@@H]1OC[C@@H](OC(=O)CCc2c[nH]c3ccccc23)[C@@H](OC(=O)CCc2c[nH]c3ccccc23)[C@H]1OC(=O)CCc1c[nH]c2ccccc12 [Compound 80, (2S,3R,4R,5R)-3,4,5-tris({[3-(1H-indol-3-yl)propanoyl]oxy})oxan-2-yl 3-(1H-indol-3-yl)propanoate] | C (>75% of the tested compound remaining) | A (<25% of the tested compound remaining) | A (<25% of the tested compound remaining)
7 | CCCC(=O)O[C@@H]1[C@@H](OC(=O)CCC)[C@H](C)O[C@@H](OC(=O)CCc2c[nH]c3ccccc23)[C@@H]1OC(=O)CCC [Compound 83, (2S,3R,4R,5S,6S)-4,5-bis(butanoyloxy)-2-{[3-(1H-indol-3-yl)propanoyl]oxy}-6-methyloxan-3-yl butanoate] | C (>75% of the tested compound remaining) | A (<25% of the tested compound remaining) | A (<25% of the tested compound remaining)
8 | CCCC(=O)O[C@H]1[C@H](OC(=O)CCC)[C@H](OC(=O)CCc2c[nH]c3ccccc23)O[C@@H](C)[C@H]1OC(=O)CCC [Compound 84, (2S,3S,4R,5R,6S)-4,5-bis(butanoyloxy)-2-{[3-(1H-indol-3-yl)propanoyl]oxy}-6-methyloxan-3-yl butanoate] | C (>75% of the tested compound remaining) | A (<25% of the tested compound remaining) | A (<25% of the tested compound remaining)
